Experiment [1] addresses T1, MC4R (Homo sapiens, UniProt P32245). The experiment is described as follows: Luciferase assay (HEK MC4R-Luc, CRE-LUC). Further details: expressed in transfected cells. The following applies: HEK MC4R-Luc cells, 5 h incubation. The class given is cell-based. On the procedure:
In order to measure the agonist ability against MC4R (melanocortin-4 receptor), a cell line that permanently expresses the luciferase gene (CRE-LUC) under the control of MC4R and CRE (cAMP response element) was established. After a mammalian cell expression vector (pCDNA3 (Neo)) (Invitrogen) containing the MC4R gene was prepared, human embryonic kidney (HEK) cell lines were transformed by using Lipofectamine 2000 (Invitrogen) together with a vector (pCRE-Luc)(Stratagen) expressing a luciferase gene (CRE-LUC) under the control of a cAMP response element (CRE). Transformed cell lines (HEK MC4R-Luc) were incubated in a 37° C. incubator in the presence of 5% CO2 for 24 hours by using Dulbecco's Modified Eagles Medium (DMEM) containing 10% Heat-Inactivated Fetal Bovine Serum (GIBCO/BRL). The cell lines were incubated for four days in the presence of Dulbecco's Modified Eagles Medium (DMEM) containing 10 ml of selection medium (10% Heat-Inactivated Fetal Bovine Serum (GIBCO/BRL), 100 unit/ml of penicillin (GIBCO/BRL), 100 unit/ml of streptomycin (GIBCO/BRL), 800 μg/ml of Geneticin (G418) (GIBCO/BRL). The process of removing cells killed by the selection medium by replacing the medium with 10 ml of a new selection medium was repeated three times, once every 4 days. Individual colonies formed by the finally selected and propagated clones were transferred under a microscope to a 24-well cell culture plate containing 1 ml of selection medium per well and incubated for 4 days. Forskolin (SIGMA) was treated to a final concentration of 10 μM, and then incubated for five hours in a 37° C. incubator in the presence of 5% CO2. Each well was treated with 50 μl of a Bright-Glo luciferase reagent (Promega) and left at room temperature for 15 minutes, and then the luminescence of each well was measured by using a luminometer (Victor).
HEK MC4R-Luc cells were added to each well of a 96-well luminometer cell culture plate (Costar) to a size of 2.5×10^4 cells in 100 μl of a culture medium and then incubated in a 37° C. incubator in the presence of 6% CO2 for 18 hours. […] Each well was treated with 50 μl of a Bright-Glo luciferase reagent (Promega) and left at room temperature for five minutes, and then the luminescence of each well was measured by using a luminometer (Victor). […] EC0.5 MSH is expressed as a concentration that induces 50% of the maximum amount of luminescence that can be induced by NDP-α-MSH, and EC50 is expressed as a concentration that induces 50% of the maximum amount of luminescence that can be induced by each agonist. The measurements were measured using statistical software (Prizm).
Target sequence in this assay (P32245 whole entry, species assumed): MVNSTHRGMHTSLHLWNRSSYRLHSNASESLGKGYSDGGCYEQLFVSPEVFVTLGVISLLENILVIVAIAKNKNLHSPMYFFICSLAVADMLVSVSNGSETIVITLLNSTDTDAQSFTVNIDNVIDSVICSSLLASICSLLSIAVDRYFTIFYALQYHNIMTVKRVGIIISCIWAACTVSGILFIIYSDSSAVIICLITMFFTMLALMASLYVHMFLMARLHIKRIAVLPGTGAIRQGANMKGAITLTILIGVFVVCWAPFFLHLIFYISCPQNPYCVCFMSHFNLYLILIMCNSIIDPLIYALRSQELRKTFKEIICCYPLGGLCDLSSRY

For experiment [2], the target named is T1, MC4R. The experiment can be described thus: Binding affinity, 125I-NDP-α-MSH displacement on membranes. Further details: expressed in transfected cells; host or cells: HEK-293 cells; membranes collected. The following applies: HEK-293 MC4R membrane, 0.02 nM 125I-NDP-α-MSH. An excerpt:
Five subtypes of melanocortin receptor (MCR) in vivo are known, and it is known that MC4R, which is Subtype 4, is involved in energy metabolism and weight control. Since other MCR subtypes are involved in the regulation of various functions in vivo such as skin pigmentation, energy homeostasis, and exocrine functions, securing selectivity for MC4R of MC4R agonist compounds is very important in preventing possible side effects in the future. Therefore, the receptor binding abilities of MC4R agonists for each MCR subtype were measured.
After the CHO-K1 cell line expressing human recombinant MC1R and the HEK-293 cell lines expressing MC3R, MC4R and MCSR were established, membranes were collected from each cell line. In a 96-well cell culture plate, 3 μg MC1R membrane and 0.04 nM ^125I-NDP-α-MSH per well were reacted at 37° C. for two hours. 3 μg MC3R and MCSR membrane and 0.035 nM ^125I-NDP-α-MSH were reacted at 37° C. for one hour, and 3.12 μg MC4R membrane and 0.02 nM ^125I-NDP-α-MSH were reacted at 37° C. for two hours. At this time, 25 mM HEPES-KOH adsorption buffer (pH 7.0) containing MCR agonist diluted at each step concentration was added to each well and reacted. The reacted solution was transferred to a filter and washed with an adsorption buffer, and then radioactivity was measured. The value excluding the non-specific binding amount in the presence of 1 μM (MC1R) and 3 μM (MC3R, MC4R, MCSR) of NDP-α-MSH from each total binding amount was used as specific binding amounts of ^125I-NDP-α-MSH. The degree to which the ^125I-NDP-α-MSH specific binding was inhibited by the agonist diluted at each step concentration was measured. IC50 was expressed as the concentration of each agonist that inhibited specific binding of 50% of ^125I-NDP-α-MSH.
Target sequence in this assay (P32245 whole entry): as the sequence (P32245 whole entry, species assumed) above

In experiment [3] the target is T1, MC4R. The experiment is described as follows: cAMP assay (cAMP Hunter Gs-coupled CHO-K1 cell line). The class given is cell-based. On the set-up: expressed in transfected cells; host or cells: CHO-K1 (cAMP Hunter Gs-coupled cell line). The following applies: CHO-K1 cells overexpressing MC4R, 30 min at 37° C. An excerpt:
The melanocortin receptor is a type of G-protein coupled receptor (GPCR), and the main role of G-protein is to activate secondary transducers to regulate cellular responses to many physiological stimuli through signal transduction. MC4R is a Gs-coupled receptor, and it is known that if MC4R interacts with an agonist, adenylate cyclase (AC) is activated to increase the concentration of cyclic AMP (cAMP), which is one of the secondary transducers in cells. Therefore, it is possible to evaluate the activity of melanocortin receptors by measuring the generation of cAMP signals.
After cAMP Hunter Gs-coupled cell lines (CHO-K1 cell line) in which each of MC1R, MC3R, MC4R and MCSR was overexpressed were established so that the increase in the cAMP level in cells due to agonist reaction was measurable, the cells were inoculated into each well of a white cell culture plate and incubated for 24 hours in a 37° C. incubator in the presence of 5% CO2. After the incubation, the medium was removed, and 15 μl of a 2:1 HBBS/10 mM HEPES:cAMP XS+Ab reagent was added. After 5 μl of the sample diluted 4 times with buffer was added, the vehicle concentration was set to 1%, and the MC4R agonist compound diluted at each step concentration was added, followed by reaction at 37° C. for 30 minutes. The activity (%) of each agonist compound is expressed as 100%×(average RLU value of sample−average RLU value of vehicle control)/(average RLU value of max control−average RLU value of vehicle control), and the value was analyzed by CBIS data analysis suite (ChemInnovation, CA).
(cAMP levels reflect the balance of adenylyl cyclase and phosphodiesterase activity.)
Target sequence in this assay (P32245 whole entry, species assumed): as above

Experiment [4] concerns the target T1, MC4R. The experiment can be described thus: β-arrestin assay (Pathhunter eXpress U2OS cell line). The class given is cell-based. The following applies: U2OS cells, 90 min at 37° C. Further details: expressed in transfected cells; host or cells: U2OS (Pathhunter eXpress β-arrestin cell line). An excerpt:
The melanocortin receptor is a type of G-protein coupled receptor (GPCR) and regulates various physiological responses by transducing signals from many neurotransmitters. When GPCR is phosphorylated, β-arrestin is bound to the phosphorylated part of the receptor and plays an important role in activating various signaling pathways in cells through interaction with other proteins. It is known that, when the melanocortin receptor interacts with an agonist, β-arrestin is mobilized and is involved in the β-arrestin-mediated signaling pathway. Therefore, the activity of the melanocortin receptor can be evaluated through the measurement of β-arrestin.
A Pathhunter eXpress β-arrestin cell line (U2OS cell line) in which Prolink (PK)-tagged MC1R, MC3R, MC4R, MC5R and Enzyme acceptor (EA)-tagged β-arrestin were expressed together was established. When the MCR-PK portion of this cell line is activated, β-arrestin-EA is mobilized, and enzyme acceptor (EA) and Prolink (PK), which are the β-galactosidase enzyme fragments, interact. The activated enzyme hydrolyzes the substrate by β-galactosidase activity to produce a chemiluminescent signal, so that the activity can be measured. After the Pathhunter eXpress β-arrestin cell line (U2OS cell line) was incubated, the cells were inoculated into each well of the cell culture plate and incubated for 48 hours in a 37° C. incubator in the presence of 5% CO2. After the incubation, 5 μl of the sample diluted 5 times with buffer was added, the vehicle concentration was set to 1%, and the MC4R agonist compound diluted at each step concentration was added, followed by reaction at 37° C. for 90 minutes. The activity (%) of each agonist compound is expressed as 100%×(average RLU value of sample−average RLU value of vehicle control)/(average maximum value of control ligand−average RLU value of vehicle control), and the value was analyzed by CBIS data analysis suite (ChemInnovation, CA).
Target sequence in this assay (P32245 whole entry): as the sequence (P32245 whole entry, species assumed) above
Target sequence in this assay (P32121 whole entry partner): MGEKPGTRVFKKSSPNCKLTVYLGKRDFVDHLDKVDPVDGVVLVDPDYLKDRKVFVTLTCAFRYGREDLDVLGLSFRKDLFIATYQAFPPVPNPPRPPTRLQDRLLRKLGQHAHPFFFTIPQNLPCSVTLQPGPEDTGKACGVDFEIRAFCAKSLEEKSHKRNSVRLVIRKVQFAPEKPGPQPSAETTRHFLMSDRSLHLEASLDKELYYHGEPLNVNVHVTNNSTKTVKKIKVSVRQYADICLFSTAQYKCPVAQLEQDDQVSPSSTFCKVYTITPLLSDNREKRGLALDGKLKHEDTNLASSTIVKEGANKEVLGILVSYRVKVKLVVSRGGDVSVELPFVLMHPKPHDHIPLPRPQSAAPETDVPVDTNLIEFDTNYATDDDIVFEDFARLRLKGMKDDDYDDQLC

In experiment [5] the test system is mouse obesity model induced by high fat diet. The experiment is described as follows: Mouse obesity model induced by high fat diet. The class given is in vivo, C57BL/6Ntaconic mice. The following applies: Day 12, 10 mg/kg, oral once a day, high-fat-diet obese mice. On the procedure: The effect of melanocortin-4 receptor agonists on obesity was evaluated by using the mouse obesity model induced with a high fat diet.
Five-week-old male C57BL/6Ntaconic mice were fed with a 60 kcal % fat diet (D12492, Research Diet.) for 15 weeks to induce obesity. The compound of Example 1, the compounds of the comparative examples (A95 and A96), and sibutramine as a positive control were prepared in distilled water and orally administered to […] mouse obesity models induced by a high-fat diet once a day from day 1 to day 16. From Day 1 to Day 16, the body weight was measured once a day, the dietary intake was measured five times a week, and drinking water intake was measured twice a week. Blood glucose and glycated hemoglobin were measured on Day 15, and all animals were sacrificed on Day 17. Blood was collected through the abdominal vena cava, and the liver and epididymal adipose tissues were removed and weighed. The collected blood was placed in a heparin tube and centrifuged to separate plasma, and then plasma biochemical analysis was performed.

Counter-ions that a name gives are not always drawn.

By EC50 is commonly meant the concentration giving half of the maximal effect. A lower EC50 goes with greater potency. As usually defined, the Ki is the dissociation constant of the complex between target and ligand, obtained from inhibition or displacement. A lower Ki goes with tighter binding.

On to `CC(C)(C)C(=O)N([C@H]1C[C@@H](C(=O)N2CCOCC2)N(C(=O)[C@@H]2CN(C(C)(C)C)C[C@H]2c2ccc(Cl)cc2)C1)[C@H]1CC[C@@H](C)CC1` [Example 3, N-((3S,5S)-1-((3S,4R)-1-(tert-butyl)-4-(4-chlorophenyl)pyrrolidine-3-carbonyl)-5-(morpholine-4-carbonyl)pyrrolidin-3-yl)-N-((1s,4R)-4-methylcyclohexyl)pivalamide hydrochloride], for which the EC50 at MC4R [1] was 0.675 nM; at MC4R [3], 22.7 nM; at MC4R [4] it was 3.3 nM. The affinity on MC4R [2], expressed as Ki, was 24 nM.
For `CC(C)CC(N(C)C)C1(c2ccc(Cl)cc2)CCC1` (stereo not drawn) [Sibutramine], the “Difference in weight change rate to vehicle” value in experiment [5] is on record as −6.8%.
`CCC(=O)N([C@H]1C[C@@H](C(=O)N2CCOCC2)N(C(=O)[C@@H]2CN(C(C)(C)C)C[C@H]2c2ccc(Cl)cc2)C1)[C@H]1CC[C@@H](C)CC1` [Example 2, N-((3S,5S)-1-((3S,4R)-1-(tert-butyl)-4-(4-chlorophenyl)pyrrolidine-3-carbonyl)-5-(morpholine-4-carbonyl)pyrrolidin-3-yl)-N-((1s,4R)-4-methylcyclohexyl)propionamide hydrochloride]: the concentration giving a half-maximal response (EC50) on MC4R [1] was found to be 1.07 nM; at MC4R [3], 50.3 nM; on MC4R [4], 8.7 nM. The same molecule registered a Ki on MC4R [2] of 110 nM.
